# Values quoted from earlier work, collected in patent US20150182481A1, “USE OF POLYMER D-LACTIC ACID (PDLA) TO TREAT PAIN” (priority 2013, published 2015).
# What was measured:
# C fibers = details: 300 mM lactic acid injection
# [1] = test system: nerve poisoned by iodoacetic acid (I.A.A.) and continuously tetanized; details: I.A.A. solution containing lactate 180 mg/100 cc
smiles,measurement,setting,value
C[C@@H](O)C(=O)O [d-lactic acid],plasma d-lactate in asymptomatic exercising subjects,asymptomatic exercising subjects,12 mM
same,average plasma concentration at which neurotoxic,"reversible altered mental status, dysarthria, ataxia",7.98 mM
"C[C@H](O)C(=O)O [lactic acid, L-Lactic acid]",firing of C fibers,C fibers,increase firing of C fibers
CC(O)C(=O)[O-].[Na+] (stereo not shown) [sodium lactate],effect on sustained galvanic contractions of the nerve,[1],enhances repeated nerve tetanization
